The text below walks through data of patent US7964629B2, “Inhibitors of isoprenylcysteine carboxyl methyltransferase” (Duke Universtiy, priority 2005, dated 2011).

In one test the test system is Yes-GFP in MDCK cells. Kind of test: Localization of Yes-GFP in MDCK cells (control). Type of test: cell-based. The conditions noted are these: 10, 20, 30 μM. The protocol:
FIGS. 3A and 3B. Impact of cysmethynil treatment on Ras localization and signaling. FIG. 3A. Mislocalization of GFP Ras in cysmethynil treated cells. […] Live cells were imaged on a spinning disk confocal microscope. FIG. 3B. Impact of cysmethynil treatment on EGF-stimulated protein phosphorylation. […] Where indicated, cells were treated with EGF for the final 10 min prior to harvesting. Cell lysates containing equal amounts of protein were resolved on a 13% SDS-polyacrylamide gel and probed with antiphospho-Akt, antiphospho-p42/44 MAPK or anti-β-tubulin antibody as indicated. MDCK cells stably expressing GFP-H-Ras, GFP-K-Ras or GFP-N-Ras were grown on 35 mm coverslip dishes (MatTek Corporation, Ashland, Mass.) treated with poly-D-lysine. MDCK cells expressing […] were prepared by transient transfection of the Yes-GFP construct (McCabe and Berthiaume, Mol Cell Biol 10:3771-3786 (1999)) using Superfect reagent (Quiagen, Valencia, Calif.) following the manufacturer's instructions. […] Cells were imaged 72 h after drug treatment (24 h for transiently transfected cells) on an Olympus IX70 inverted microscope (Melville, N.Y.) with an UltraView spinning-disk confocal (PerkinElmer LAS, Wellesley, Mass.) and a Krypton/Argon laser, 488 nm line, attached to a cooled-CCD camera (Hamamatsu, Bridgewater, N.J.). […]

Test [1] concerns p42/44 MAPK phosphorylation in DKOB8 cells expressing GFP-Icmt. Description: EGF-stimulated MAPK activation in Icmt-overexpressing cells. Type of test: cell-based. Particulars: 5 μM, three days, reduced-serum media; Icmt activity elevated 4-fold. The protocol:
FIGS. 4A-4C. Overexpression of Icmt rescues EGF-stimulated MAPK activation and anchorage-independent growth in cysmethynil-treated cells. FIG. 4A. Creation of cell lines stably overexpressing Icmt. DKOB8 cells were engineered to stably express either GFP alone or a GFP-Icmt fusion protein. Membrane fractions from GFP and GFP-ICMT expressing lines were assayed for Icmt activity using the BFC assay. FIG. 4B. Overexpression of Icmt restores EGF-stimulated MAPK activation in cysmethynil-treated cells. […] Where indicated, cells were treated with EGF for the final 10 min prior to harvesting. Cell lysates containing equal amounts of protein were resolved on a 13% SDS-polyacrylamide gel and probed with antiphospho-p42/44 MAPK or, as a control, antiphospho NFκB antibody as indicated. FIG. 4C. […] After 3 weeks of growth, colonies were stained with MTT and imaged.
Half of the wells were then treated with EGF (10 ng/ml) and half with vehicle for 10 min. Cells were rinsed with PBS and harvested in SDS-PAGE loading buffer. Total cell lysates (30 μg protein) were resolved on 4-20% Tris-glycine polyacrylamide gels (Invitrogen). Proteins were transferred to nitrocellulose and probed with a mix of anti-phospho-Akt and anti-phospho-p42/44 MAPK antibodies, or with anti-tubulin or anti-phospho NFκB antibody (Cell Signaling Technology) as indicated. […]

Test [2] relates to Akt phosphorylation in DKOB8 colon cancer cells. Kind of test: Phosphoprotein analysis: EGF-stimulated Akt. It is filed as cell-based. Particulars: 1 μM, three days, 1% serum, EGF 10 min. As to the method:
(§1) FIGS. 3A and 3B. Impact of cysmethynil treatment on Ras localization and signaling. FIG. 3A. Mislocalization of GFP Ras in cysmethynil treated cells. […] Live cells were imaged on a spinning disk confocal microscope. FIG. 3B. Impact of cysmethynil treatment on EGF-stimulated protein phosphorylation. […] Where indicated, cells were treated with EGF for the final 10 min prior to harvesting. Cell lysates containing equal amounts of protein were resolved on a 13% SDS-polyacrylamide gel and probed with antiphospho-Akt, antiphospho-p42/44 MAPK or anti-β-tubulin antibody as indicated. […] Half of the wells were then treated with EGF (10 ng/ml) and half with vehicle for 10 min. Cells were rinsed with PBS and harvested in SDS-PAGE loading buffer. Total cell lysates (30 μg protein) were resolved on 4-20% Tris-glycine polyacrylamide gels (Invitrogen). Proteins were transferred to nitrocellulose and probed with a mix of anti-phospho-Akt and anti-phospho-p42/44 MAPK antibodies, or with anti-tubulin or anti-phospho NFκB antibody (Cell Signaling Technology) as indicated. Visualization was performed with alkaline phosphatase (Promega, Madison, Wis.) as per the manufacturer's instructions.

For another test, the target named is GGTase-I (Homo sapiens, UniProt P49354+P53609). Description: GGTase-I inhibition (results not shown). Type of test: biochemical. Particulars: concentrations up to 50 μM.
The subject of test [3] is p42/44 MAPK phosphorylation in DKOB8 colon cancer cells. Description: Phosphoprotein analysis: EGF-stimulated p42/44 MAPK. It is filed as cell-based. Particulars: 1 μM, three days, 1% serum, EGF 10 min. The protocol:
as §1

Test [4] relates to Icmt−/− mouse embryonic fibroblasts. Kind of test: Cell growth determination, Icmt-deficient fibroblasts. It is filed as cell-based. The conditions noted are these: 15, 20, 30 μM; 10% serum; six days. The protocol: FIGS. 2A-2C. […] Media and drug were replaced daily, and cell growth was monitored for six days. Data represent the mean and standard deviation of four replicate wells. (FIG. 2A) Icmt^+/+ cells; (FIG. 2B) Icmt^−/− cells; (C) Icmt^−/− cells stably transfected with a gene expressing human ICMT (Icmt^−/−/ICMT cells).
Cell growth assays were performed in a 96-well plate format. Briefly, 500 to 1000 cells were plated into 96-well plates. After the cells were allowed to attach for 24 h, media was removed and replaced with media containing either compound or vehicle. Media and drug were replaced every 24 h throughout the assay. Cell determinations were made at the times indicated in the respective figure by adding 19 μl of CellTiter 96 AqueousOne solution to each well followed by incubation of the plates in the dark at 37° C. for two hr after which the absorbance at 490 nm was read. Background absorbance from blank wells containing only media with compound or vehicle was subtracted from each test well. Typically, 3-6 replicate wells were employed for each point in each assay.

Take `CCCCCCCCn1cc(CC(N)=O)c2cc(-c3cccc(C)c3)ccc21` [cysmethynil, 2-[5-(3-methylphenyl)-1-octyl-1H-indol-3-yl]acetamide]: the “plasma membrane localization of Yes-GFP” value in the test with Yes-GFP in MDCK cells is on record as “did not affect”. The “blockade of EGF-stimulated MAPK activation” value in test [1] is listed as “protect the cells from cysmethynil blockade”. The “EGF-induced increase in Akt phosphorylation” value in test [2] is listed as “partially but not completely attenuated”. Moreover, at GGTase-I, the “inhibition of GGTase-I” value is reported as “did not inhibit”. For the same compound, the “EGF-induced increase in MAPK” value in test [3] is given as “almost completely blocked”. Moreover, the cell growth result in test [4] is “largely unaffected”.
